Subacute toxicity data for one substance are collected here from EP2667887B1, “PHARMACEUTICAL COMPOSITION COMPRISING THE PEPTIDE GLU-ASP-GLY AND USE FOR TREATING HELICOBACTER PYLORI INDUCED GASTRODUODENAL DISEASES” («Garmonia», Ltd., priority 2011, dated 2012).

The data set in a line: Subacute toxicity study, 90 days. The format is in vivo, white mongrel male rats. The settings on record: rats, daily for 90 days, 1 µg/kg, 0,1 mg/kg, doses exceed the therapeutic one by 100-1000 times. On the procedure:
General toxicity of peptide H-Glu-Asp-Gly-OH was studied in accordance with the requirements of "Manual for Experimental (Pre-Clinical) Study of New Pharmacological Substances" (2000): acute toxicity in case of a single administration of the preparation, as well as subacute and chronic toxicity in case of a long-term administration of the peptide.
Subacute toxicity study was carried out on 64 white mongrel male rats with body weight 180-220 g. Experimental animals received the preparation daily, once a day for 90 days in the doses of 1 µg/kg, 0,1 mg/kg, 1 mg/kg in 0,5 ml of sterile 0,9% NaCl solution. Control animals were treated with sterile 0,9% NaCl solution in the same volume. Before the administration of the preparation, as well as on the 30th, 60th and 90th day after the beginning of the administration of the preparation peripheral blood morphology and properties were studied in the animals. Upon completion of the experiment biochemical and coagulology indices of the blood were evaluated.

With “glutamyl-aspartyl-glycine [H-Glu-Asp-Gly-OH]”, the subacute toxicity entry is listed as “no side effects”.
